Test results published in patent publication US7659251B2, “Ligand for G-protein coupled receptor FPRL2” (priority 2004, dated 2010).

Assays:
FPR [1] = target: T1, FPR (Homo sapiens, UniProt P21462, E346A/V101L); assay: Competition binding on FPR-expressing CHO-K1 cells, tracer [125I]-WKYMVm
T1 construct: expressed in transfected cells; host or cells: CHO-K1 (with or without Galpha16 and apoaequorin)
T1 sequence (P21462 1-350 V101L/E346A): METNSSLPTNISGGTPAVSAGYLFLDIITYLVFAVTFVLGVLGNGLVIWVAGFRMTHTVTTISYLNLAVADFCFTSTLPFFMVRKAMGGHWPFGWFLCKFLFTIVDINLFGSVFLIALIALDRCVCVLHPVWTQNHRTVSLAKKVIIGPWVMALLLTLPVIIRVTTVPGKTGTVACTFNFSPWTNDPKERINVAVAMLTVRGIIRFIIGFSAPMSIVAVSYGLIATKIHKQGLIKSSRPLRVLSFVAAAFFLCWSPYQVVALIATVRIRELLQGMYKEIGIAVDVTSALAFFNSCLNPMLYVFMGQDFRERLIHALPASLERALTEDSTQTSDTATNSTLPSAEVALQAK
Description: FPRL2, FPRL1 and FPR-expressing CHO-K1 cells were plated in 24 wells plates (200,000 cells per well for FPRL2, and 100,000 cells per well for the two other receptors). The next day, the cells were washed twice with a KRH buffer containing 280 mM saccharose and, for FPRL1 and FPR, 0.1 % NaN3. […] Cells were washed twice with ice cold buffer, total radioactivity was recovered with 1 M […] and counted in a gamma counter for […]

FPR [2] = target: T1, FPR; assay: cAMP accumulation assay (HTRF, forskolin) on FPR-expressing CHO-K1 cells; format: cell-based
Description: The cAMP concentrations were determined using a homogeneous time-resolved fluorescence (HTRF) kit (Cis Bio International). Briefly, cells were detached, resuspended in Krebs Ringer Hepes buffer containing 1 mM 3-Isobutyl-1-methylxanthine, and submitted to 10 μM forskolin, alone or together with increasing concentrations of agonists for 30 min at room temperature. The reaction was stopped by the successive addition of cAMP-XL665 and anti-cAMP cryptate diluted in lysis buffer. The plates were incubated for 60 min at room temperature and read on a Rubystar fluorimeter (BMG). […] A calibration curve was obtained by plotting delta F % versus cAMP concentrations. […] The aequorin-based assay was performed with or without overnight pretreatment with 100 ng/ml Pertussis toxin. […] For FPRL2 polymorphism analysis, HEK cells were transiently transfected with empty and wild-type or Asp338H is FPRL2-containing pcdna vector using calcium phosphate method. Cells were recovered 48 hours later and used for FACS or cAMP experiments.

monocyte-derived DCs = assay: Ca2+ mobilization assay on monocyte-derived DCs; format: cell-based, human; conditions: dose-dependent; FIG. 13A
Description: (§1) Monocyte-derived DCs were generated either from the adherent fraction of PBMCs cultured with GM-CSF (800 U/ml) and […] (500 U/ml), or from Percoll-purified monocytes cultured with GM-CSF (50 ng/ml) and IL-13 (20 ng/ml), for 5 to 7 days. For Ca^2+ mobilization assay, monocytes were obtained by negative selection with the Monocyte Isolation Kit II (Miltenyi Biotec). […] For Ca^2+ mobilization assays, monocyte-derived DCs or monocytes (5×10^5 cells/ml in HBSS without phenol red but containing 0.1% BSA and 1 mM Probenecid (Sigma)) were loaded with 4 μM Fluo 4 (Molecular Probes) for 1 h at 20° C. in the dark. The loaded cells were washed twice, resuspended at 1 to 2×10^6 cells/ml and 50 μl of cell suspension was distributed per well of a 96 well plate (Viewplate, Packard Bioscience). Reading was performed in a Fluostar fluorimeter (BMG) at 25° C.: 50 μl of ligand-containing medium was injected, and the fluorescence at 520 nm was recorded every second for 1 to 3 min. Each condition was performed in triplicate, the mean fluorescence for each time point was calculated, and the curves were normalized by subtracting the mean value of the five measurements preceding the injection.

[3] = system: wild-type CHO-K1 cells, ChemerinR and other GPCRs; assay: Aequorin-based assay on wild-type CHO-K1 cells and CHO-K1 cells expressing ChemerinR and other GPCRs; format: cell-based; conditions: data not shown
Text: The human coding sequences (accession numbers AC005946, M84562 and M60626, respectively) were amplified by PCR from human genomic DNA, cloned into the pcDNA3 (Invitrogen) and pEFIN3 (Euroscreen) vectors and sequenced. The pEFIN3 constructs were transfected, using Fugene 6, into CHO-K1 cells, expressing or not Gα16 and apoaequorin. G418-resistant clones were characterized for receptor expression by Northern blotting. A functional assay based on the luminescence of mitochondrial aequorin was performed as described (42). Results were expressed as relative light units (RLU) or as the percentage of the response to 20 μM ATP.

FPRL2 = target: T2, FPRL2 (Homo sapiens, UniProt P25089); assay: Cell surface FPRL2 on DCs by FACS after culture with F2L; format: cell-based; design: expressed in transfected cells; host or cells: CHO-K1; conditions: 1 μM F2L for 48 hours; not shown
T2 sequence (P25089 1-353): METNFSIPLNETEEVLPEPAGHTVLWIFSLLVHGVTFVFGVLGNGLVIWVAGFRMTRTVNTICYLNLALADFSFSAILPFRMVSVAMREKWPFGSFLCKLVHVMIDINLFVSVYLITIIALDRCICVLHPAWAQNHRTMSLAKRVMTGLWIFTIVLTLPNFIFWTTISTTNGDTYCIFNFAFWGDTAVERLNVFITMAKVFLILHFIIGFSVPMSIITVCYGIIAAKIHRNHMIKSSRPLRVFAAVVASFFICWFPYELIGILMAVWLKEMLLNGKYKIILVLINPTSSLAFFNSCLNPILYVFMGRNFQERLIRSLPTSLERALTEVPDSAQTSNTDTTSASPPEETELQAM
Description: Antibodies were generated by injecting BALB/c mice with 100 μg pcDNA3-FPRL2 as described (45). Sera were tested by FACS on the CH0-K1-FPRL2 cell line, and immune mice were used to generate monoclonal antibodies by standard hybridoma technology, using the NSO myeloma cell line. The Ig class of selected hybridomas was determined with a mouse mAb isotyping kit (IsoStrip, Boehringer Mannheim). The antibodies were tested using flow cytometry, performed using anti-FPRL2 antibodies or control IgG2a at 1 μg/ml (for CHO-K1 cells) or 5 μg/ml (for primary cells) in PBS containing 0.1% BSA, 0.1% sodium azide, and FITC-conjugated γ-chain-specific goat anti-mouse IgG (Sigma) as secondary antibody. Fluorescence of 10,000 cells was assayed using a FACScan flow cytofluorimeter (Beckton Dickinson). Intracytoplasmic staining was realised using Cytoperm/Cytowash (Becton Dickinson) according to manufacturer's instructions.

monocytes = assay: Ca2+ mobilization assay on monocytes; format: cell-based, human; conditions: 100 nM F2L; FIG. 13C
Description: as §1

Compound: CC[C@H](C)[C@H](NC(=O)[C@H](CCSC)NC(=O)CNC(=O)[C@H](CC(C)C)NC(=O)[C@H](CCSC)NC(C)=O)C(=O)N[C@@H](CCCCN)C(=O)N[C@@H](CC(N)=O)C(=O)N[C@@H](CO)C(=O)N[C@@H](CC(C)C)C(=O)N[C@@H](Cc1ccccc1)C(=O)NCC(=O)N[C@@H](CO)C(=O)N[C@H](C(=O)N[C@@H](CCC(=O)O)C(=O)N[C@H](C(=O)N[C@@H](Cc1c[nH]c2ccccc12)C(=O)N1CCC[C@H]1C(=O)N[C@@H](Cc1c[nH]c2ccccc12)C(=O)N[C@@H](CCC(N)=O)C(=O)N[C@H](C(=O)N[C@@H](CC(C)C)C(=O)O)C(C)C)[C@@H](C)O)C(C)C [F2L]
- IC50 (FPR [1]; FPR, −Log of IC50 in Mol/L, mean ± s.e.m., read-out: pIC50 (binding assay) (converted)): > 1000 nM
- competition for FPR binding (FPR [1]; up to concentrations of 3 μM, tracer [125I]WKYMVm): no competition
- inhibition of cAMP accumulation on FPR (FPR [2]; 1 μM F2L): only partial inhibition
- EC50 (FPR [2]; FPR, −Log of EC50 in Mol/L, mean ± s.e.m., read-out: pEC50 (cAMP assay) (converted)): > 1000 nM
- intracellular Ca2+ flux in immature DCs (monocyte-derived DCs): promoted intracellular Ca^2+ flux
- activity on all other cell lines tested [3]: completely inactive
- cell surface FPRL2 on DCs (FPRL2): down regulation
- calcium mobilization in purified monocytes (monocytes): Calcium mobilization was also observed
